# Where a SMILES comes first, the peptide text is derived from it. [ ]: non-standard residue; d: D form. The star is where a group is joined. Hydrocinnamoyl(4-OSO3H) = O=C(CCc1ccc(OS(=O)(=O)O)cc1)*; Acryloyl(3-(3-pyridyl),E) = O=C(/C=C/c1cccnc1)*; Propanoyl(3-(4-F-phenyl)) = O=C(CCc1ccc(F)cc1)*; Propanoyl(3-(4-MeO-Ph)) = COc1ccc(CCC(=O)*)cc1; Propanoyl(3-(4-Cl-Ph)) = O=C(CCc1ccc(Cl)cc1)*; 2Naphthoyl(6-OH) = O=C(c1ccc2cc(O)ccc2c1)*; Hydrocinnamoyl(4-Me) = Cc1ccc(CCC(=O)*)cc1; Quinoline3carbonyl = O=C(c1cnc2ccccc2c1)*; Dihydrocaffeoyl = O=C(CCc1ccc(O)c(O)c1)*; X35 = O=C(/C=C\c1ccc(OS(=O)(=O)O)cc1)*; X6 = O=C(/C=C\c1ccc([N+](=O)[O-])cc1)*; Desaminotyrosyl = O=C(CCc1ccc(O)cc1)*; Propanoyl(3-cHex) = O=C(CCC1CCCCC1)*; Butanoyl(4-Ph) = O=C(CCCc1ccccc1)*; 1Naphthoyl = O=C(c1cccc2ccccc12)*; 2Naphthoyl = O=C(c1ccc2ccccc2c1)*; Hydrocinnamoyl = O=C(CCc1ccccc1)*; NMeF = CN[C@@H](Cc1ccccc1)C(=O)O; X2 = O=C(c1cc2cc(Cl)ccc2[nH]1)*; X1 = O=C(/C=C\c1ccc(O)c(O)c1)*; X34 = O=C(/C=C\c1ccc(Cl)cc1)*; X3 = O=C(/C=C/c1ccc(O)cc1)*; X4 = O=C(/C=C\c1ccc(F)cc1)*; X5 = O=C(CCc1cccc(O)c1)*; Boc = CC(C)(C)OC(=O)*
# Legend:
# Cavia porcellus [1] = species on record: Cavia porcellus; experiment: Stimulation of amylase release in guinea pig pancreas; assay type: functional
# Cavia porcellus [2] = species on record: Cavia porcellus; experiment: Hydrolysis of phosphoinositide (PI) relative to maximal response elicited by CCK-8 in guinea pig pancreas.; assay type: functional
# [3] = target: T1, Cholecystokinin receptor type A (Cavia porcellus, UniProt Q63931); experiment: Inhibition of specific binding of [125I]BH-CCK-8 in guinea pig pancreas.
# T1 sequence (Q63931 whole entry): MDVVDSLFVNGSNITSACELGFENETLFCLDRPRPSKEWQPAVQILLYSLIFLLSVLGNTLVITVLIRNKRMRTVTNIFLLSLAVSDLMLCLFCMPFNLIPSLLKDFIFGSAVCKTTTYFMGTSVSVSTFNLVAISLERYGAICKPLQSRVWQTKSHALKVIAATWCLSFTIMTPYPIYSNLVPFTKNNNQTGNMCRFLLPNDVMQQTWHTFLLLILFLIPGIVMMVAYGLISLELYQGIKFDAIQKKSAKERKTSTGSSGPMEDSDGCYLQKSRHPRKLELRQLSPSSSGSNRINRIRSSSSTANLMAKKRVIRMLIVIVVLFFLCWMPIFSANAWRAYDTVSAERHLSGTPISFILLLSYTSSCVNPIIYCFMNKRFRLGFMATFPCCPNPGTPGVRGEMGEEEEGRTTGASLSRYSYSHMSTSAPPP
EC50 (Cavia porcellus [1]) [µM],IC50 [3] [µM],Structure (SMILES),Max (Cavia porcellus [2]) [%]
0.079,0.057,CC(C)(C)OC(=O)N[C@@H](Cc1c[nH]c2ccccc12)C(=O)N[C@@H](CCCCNC(=O)c1cccc2ccccc12)C(=O)N[C@@H](CC(=O)O)C(=O)N[C@@H](Cc1ccccc1)C(N)=O (Boc-WK(1Naphthoyl)DF-NH2),61
0.0035,0.0045,CC(C)(C)OC(=O)N[C@@H](Cc1c[nH]c2ccccc12)C(=O)N[C@@H](CCCCNC(=O)c1ccc2cc(O)ccc2c1)C(=O)N[C@@H](CC(=O)O)C(=O)N[C@@H](Cc1ccccc1)C(N)=O (Boc-WK(2Naphthoyl(6-OH))DF-NH2),50
0.0024,0.0038,CN(C(=O)[C@H](CC(=O)O)NC(=O)[C@H](CCCCNC(=O)c1ccc2cc(O)ccc2c1)NC(=O)[C@H](Cc1c[nH]c2ccccc12)NC(=O)OC(C)(C)C)[C@@H](Cc1ccccc1)C(N)=O (Boc-WK(2Naphthoyl(6-OH))D[NMeF]-NH2),52
0.004,0.014,CC(C)(C)OC(=O)N[C@@H](Cc1c[nH]c2ccccc12)C(=O)N[C@@H](CCCCNC(=O)c1ccc2ccccc2c1)C(=O)N[C@@H](CC(=O)O)C(=O)N[C@@H](Cc1ccccc1)C(N)=O (Boc-WK(2Naphthoyl)DF-NH2),36
0.092,0.12,CC(C)(C)OC(=O)N[C@@H](Cc1c[nH]c2ccccc12)C(=O)N[C@@H](CCCCNC(=O)CCc1ccc(O)cc1)C(=O)N[C@@H](CC(=O)O)C(=O)N[C@@H](Cc1ccccc1)C(N)=O (Boc-WK(Desaminotyrosyl)DF-NH2),77
0.074,0.14,COc1ccc(CCC(=O)NCCCC[C@H](NC(=O)[C@H](Cc2c[nH]c3ccccc23)NC(=O)OC(C)(C)C)C(=O)N[C@@H](CC(=O)O)C(=O)N[C@@H](Cc2ccccc2)C(N)=O)cc1 (Boc-WK(Propanoyl(3-(4-MeO-Ph)))DF-NH2),70
0.039,0.033,CC(C)(C)OC(=O)N[C@@H](Cc1c[nH]c2ccccc12)C(=O)N[C@@H](CCCCNC(=O)c1cnc2ccccc2c1)C(=O)N[C@@H](CC(=O)O)C(=O)N[C@@H](Cc1ccccc1)C(N)=O (Boc-WK(Quinoline3carbonyl)DF-NH2),46
0.062,0.11,CC(C)(C)OC(=O)N[C@@H](Cc1c[nH]c2ccccc12)C(=O)N[C@@H](CCCCNC(=O)c1cc2cc(Cl)ccc2[nH]1)C(=O)N[C@@H](CC(=O)O)C(=O)N[C@@H](Cc1ccccc1)C(N)=O (Boc-WK(X2)DF-NH2),27
0.16,0.4,CC(C)(C)OC(=O)N[C@@H](Cc1c[nH]c2ccccc12)C(=O)N[C@@H](CCCCNC(=O)CCc1cccc(O)c1)C(=O)N[C@@H](CC(=O)O)C(=O)N[C@@H](Cc1ccccc1)C(N)=O (Boc-WK(X5)DF-NH2),46

# The next lines start with the compound.
Structure (SMILES),EC50 (Cavia porcellus [1]) [µM],IC50 [3] [µM],Max (Cavia porcellus [2]) [%]
CSCC[C@H](NC(=O)[C@H](Cc1c[nH]c2ccccc12)NC(=O)OC(C)(C)C)C(=O)N[C@@H](CC(=O)O)C(=O)N[C@@H](Cc1ccccc1)C(N)=O,2.6,–,40
"CC(C)(C)OC(=O)N[C@@H](Cc1c[nH]c2ccccc12)C(=O)N[C@@H](CCCCNC(=O)/C=C/c1cccnc1)C(=O)N[C@@H](CC(=O)O)C(=O)N[C@@H](Cc1ccccc1)C(N)=O (Boc-WK(Acryloyl(3-(3-pyridyl),E))DF-NH2)",0.038,0.021,60
"CN(C(=O)[C@H](CC(=O)O)NC(=O)[C@H](CCCCNC(=O)/C=C/c1cccnc1)NC(=O)[C@H](Cc1c[nH]c2ccccc12)NC(=O)OC(C)(C)C)[C@@H](Cc1ccccc1)C(N)=O (Boc-WK(Acryloyl(3-(3-pyridyl),E))D[NMeF]-NH2)",0.028,0.028,74
CC(C)(C)OC(=O)N[C@@H](Cc1c[nH]c2ccccc12)C(=O)N[C@@H](CCCCNC(=O)CCCc1ccccc1)C(=O)N[C@@H](CC(=O)O)C(=O)N[C@@H](Cc1ccccc1)C(N)=O (Boc-WK(Butanoyl(4-Ph))DF-NH2),30,0.91,19
CN(C(=O)[C@H](CC(=O)O)NC(=O)[C@H](CCCCNC(=O)CCc1ccc(O)cc1)NC(=O)[C@H](Cc1c[nH]c2ccccc12)NC(=O)OC(C)(C)C)[C@@H](Cc1ccccc1)C(N)=O (Boc-WK(Desaminotyrosyl)D[NMeF]-NH2),0.032,0.03,77
CC(C)(C)OC(=O)N[C@@H](Cc1c[nH]c2ccccc12)C(=O)N[C@@H](CCCCNC(=O)CCc1ccc(O)c(O)c1)C(=O)N[C@@H](CC(=O)O)C(=O)N[C@@H](Cc1ccccc1)C(N)=O (Boc-WK(Dihydrocaffeoyl)DF-NH2),0.3,0.16,44
Cc1ccc(CCC(=O)NCCCC[C@H](NC(=O)[C@H](Cc2c[nH]c3ccccc23)NC(=O)OC(C)(C)C)C(=O)N[C@@H](CC(=O)O)C(=O)N[C@@H](Cc2ccccc2)C(N)=O)cc1 (Boc-WK(Hydrocinnamoyl(4-Me))DF-NH2),0.24,0.29,62
CC(C)(C)OC(=O)N[C@@H](Cc1c[nH]c2ccccc12)C(=O)N[C@@H](CCCCNC(=O)CCc1ccc(OS(=O)(=O)O)cc1)C(=O)N[C@@H](CC(=O)O)C(=O)N[C@@H](Cc1ccccc1)C(N)=O (Boc-WK(Hydrocinnamoyl(4-OSO3H))DF-NH2),0.098,0.076,68
CC(C)(C)OC(=O)N[C@@H](Cc1c[nH]c2ccccc12)C(=O)N[C@@H](CCCCNC(=O)CCc1ccccc1)C(=O)N[C@@H](CC(=O)O)C(=O)N[C@@H](Cc1ccccc1)C(N)=O (Boc-WK(Hydrocinnamoyl)DF-NH2),0.85,0.31,49
CC(C)(C)OC(=O)N[C@@H](Cc1c[nH]c2ccccc12)C(=O)N[C@@H](CCCCNC(=O)CCc1ccc(Cl)cc1)C(=O)N[C@@H](CC(=O)O)C(=O)N[C@@H](Cc1ccccc1)C(N)=O (Boc-WK(Propanoyl(3-(4-Cl-Ph)))DF-NH2),0.17,0.41,51
CC(C)(C)OC(=O)N[C@@H](Cc1c[nH]c2ccccc12)C(=O)N[C@@H](CCCCNC(=O)CCc1ccc(F)cc1)C(=O)N[C@@H](CC(=O)O)C(=O)N[C@@H](Cc1ccccc1)C(N)=O (Boc-WK(Propanoyl(3-(4-F-phenyl)))DF-NH2),0.45,0.25,68
CC(C)(C)OC(=O)N[C@@H](Cc1c[nH]c2ccccc12)C(=O)N[C@@H](CCCCNC(=O)CCC1CCCCC1)C(=O)N[C@@H](CC(=O)O)C(=O)N[C@@H](Cc1ccccc1)C(N)=O (Boc-WK(Propanoyl(3-cHex))DF-NH2),30,0.31,40
CC(C)(C)OC(=O)N[C@@H](Cc1c[nH]c2ccccc12)C(=O)N[C@@H](CCCCNC(=O)/C=C\c1ccc(O)c(O)c1)C(=O)N[C@@H](CC(=O)O)C(=O)N[C@@H](Cc1ccccc1)C(N)=O (Boc-WK(X1)DF-NH2),0.045,0.033,66
CN(C(=O)[C@H](CC(=O)O)NC(=O)[C@H](CCCCNC(=O)/C=C/c1ccc(O)cc1)NC(=O)[C@H](Cc1c[nH]c2ccccc12)NC(=O)OC(C)(C)C)[C@@H](Cc1ccccc1)C(N)=O (Boc-WK(X3)D[NMeF]-NH2),0.003,[…],76
CC(C)(C)OC(=O)N[C@@H](Cc1c[nH]c2ccccc12)C(=O)N[C@@H](CCCCNC(=O)/C=C\c1ccc(F)cc1)C(=O)N[C@@H](CC(=O)O)C(=O)N[C@@H](Cc1ccccc1)C(N)=O (Boc-WK(X4)DF-NH2),0.016,0.065,74
CC(C)(C)OC(=O)N[C@@H](Cc1c[nH]c2ccccc12)C(=O)N[C@@H](CCCCNC(=O)/C=C\c1ccc([N+](=O)[O-])cc1)C(=O)N[C@@H](CC(=O)O)C(=O)N[C@@H](Cc1ccccc1)C(N)=O (Boc-WK(X6)DF-NH2),0.027,0.057,64
CC(C)(C)OC(=O)N[C@@H](Cc1c[nH]c2ccccc12)C(=O)N[C@@H](CCCCNC(=O)/C=C\c1ccc(Cl)cc1)C(=O)N[C@@H](CC(=O)O)C(=O)N[C@@H](Cc1ccccc1)C(N)=O (Boc-WK(X34)DF-NH2),0.079,–,66
CC(C)(C)OC(=O)N[C@@H](Cc1c[nH]c2ccccc12)C(=O)N[C@@H](CCCCNC(=O)/C=C\c1ccc(OS(=O)(=O)O)cc1)C(=O)N[C@@H](CC(=O)O)C(=O)N[C@@H](Cc1ccccc1)C(N)=O (Boc-WK(X35)DF-NH2),0.0072,–,72
